Data published in US8841087B2 (priority 2008, dated 2014).

Tested on: clinical strains of Mycobacterium tuberculosis
Assay: Reference phenotypic test of antibiotic sensitivity in solid medium
Type: cell-based
Conditions: Mycobacterium tuberculosis, read-out: minimum inhibitory concentration

CO[C@H]1/C=C/O[C@@]2(C)Oc3c(C)c(O)c4c(O)c(c(/C=N/N5CCN(C)CC5)c(O)c4c3C2=O)NC(=O)/C(C)=C\C=C\[C@H](C)[C@H](O)[C@@H](C)[C@@H](O)[C@@H](C)[C@H](OC(C)=O)[C@@H]1C [rifampicin]
MIC: > 1 µg/mL
